The test system of the experiment is K-562 cells. Put plainly: Cell lysis efficiency and cDNA yield in bulk (lysis and RT in one mix, PCR, BioAnalyzer/Qubit). In kind it is cell-based. Conditions: cDNA yield divided by cDNA yield with 0.1% NP40 of the same Part. As for the experimental part: The cells, lysis reagents and reverse transcription reagents are mixed together to create one reaction mix. The mRNA released from the lysed cells is reverse transcribed using oligonucleotides into a copy DNA (cDNA). The resulting cDNA is then purified using AMPure purification kit, PCR-amplified and analysed by capillary electrophoresis (BioAnalyzer). The DNA amount is also evaluated by fluorometer (Qubit) and the cDNA yields between different lysis conditions is compared to the reference (0.1% NP40).
The detailed composition and reaction conditions are provided below. Briefly, cell lysis and RT reaction were carried out in bulk with MCF7 and K562 cells. Samples containing 0.02%-0.6% of different cell lysis reagent were evaluated. After the RT reaction, cDNA was pass through a column to remove cell debris and gDNA, purified with 1.2× AMPure, eluted in 20 μl water, amplified by 12-cycles of PCR, purified reaction product with 1.2× AMPure and analyzed on BioAnalyzer chip.
Different sets of detergents were prepared in DEPC-water. Each set was tested separately. The cDNA yield for each detergent was compared to the cDNA yield obtained with 0.1% NP40 final concentration.
4. Setting Up RT Reaction: • 1. […] The final volume of reaction was 40 uL. • 4. RT reaction was carried out at 50° C. for 60 min followed by inactivation at 85° C. for 5 min. • 5. After RT reaction samples were immediately processed further by passing them through Zymo column for 1 min at 10000 g. • 6. The flow through fraction was cleaned up with 1.2× AMPure beads and eluted in 20 μL of water and processed further.
5. cDNA Amplification: • 7. cDNA amplification mix was prepared as follows:
• 8. 12 μL of cDNA amplification mix were mixed with 8 μL of purified cDNA material resulting in a total of 20 μL solution. • 9. Each sample was transferred to thermocycler and PCR program was started:
• 10. Amplified cDNA was cleaned up with 1.2× AMPure beads and eluted to 20 μL of water. • 11. DNA concentration of each sample was measured with Qubit. Samples were frozen only after cDNA amplification if needed). • 12. Calculate the dilution factor needed to reach 1 ng/uL for 0.1% NP40 sample, which is used as a reference. • 13. Load 1 μL of each sample (diluted as much times as 0.1% NP40 sample) on BioAnalyzer (BioA) HS DNA kit/chip and calculate the cDNA yield (ng/μl).
The “Relative lysis efficiency” was estimated by first quantifying the cDNA yield (ng/μl) obtained at a given lysis condition and then dividing the said cDNA yield by the cDNA yield obtained when using 0.1% NP40.

Several values for one entry are separate records, joined by “and”; a condition that tells them apart may be missing. Identical values can stand only once. Counter-ions that a name gives are not always drawn.

We go through 14 molecules from patent US20240026339A1, “COMPOSITION AND THE USE OF CELL LYSIS REAGENTS” (Vilnius University, priority 2022, published 2024).

`C[C@H](CCC(=O)NCCC[N+](C)(C)CCCS(=O)(=O)[O-])[C@H]1CC[C@H]2[C@@H]3[C@H](O)C[C@@H]4C[C@H](O)CC[C@]4(C)[C@H]3C[C@H](O)[C@]12C` [CHAPS]: the Relative lysis efficiency came out at 0.43 (single detergent at 0.02%) and 0.43 (single detergent at 0.1%).

The molecule `C[C@H](CCC(=O)O)[C@H]1CC[C@H]2[C@@H]3CC[C@@H]4C[C@H](O)CC[C@]4(C)[C@H]3C[C@H](O)[C@]12C` [Deoxycholic acid Na salt] gave a Relative lysis efficiency (single detergent at 0.02%) of 0.51 and a Relative lysis efficiency (single detergent at 0.1%) of 0.24.

In the case of `C[C@@H]1CC[C@@]2(OC1)O[C@H]1[C@@H](O)[C@H]3[C@@H]4CC[C@H]5C[C@@H](O[C@@H]6O[C@H](CO)[C@H](O[C@@H]7O[C@H](CO)[C@@H](O)[C@H](O[C@@H]8OC[C@@H](O)[C@H](O)[C@H]8O)[C@H]7O[C@@H]7O[C@H](CO)[C@H](O)[C@H](O[C@@H]8O[C@H](CO)[C@@H](O)[C@H](O)[C@H]8O)[C@H]7O)[C@H](O)[C@H]6O)[C@H](O)C[C@]5(C)[C@H]4CC[C@]3(C)[C@H]1[C@@H]2C` [Digitonin], the Relative lysis efficiency (single detergent at 0.02%) worked out at 0.85 and the Relative lysis efficiency (single detergent at 0.1%) is 0.85.

For the setting “single detergent at 0.1%”, `CCCCCCCCCc1ccc(OCCOCCOCCOCCOCCOCCOCCOCCOCCO)cc1` [Igepal CO630] showed a Relative lysis efficiency of 0.98.

Regarding `CCCCCCCCCCCCN(C)CC(=O)O` [N-Laurylsarcosine], the Relative lysis efficiency reads like this: (single detergent at 0.02%) 0.41; (single detergent at 0.1%) 0.35.

On to `CCCCCCCCO[C@@H]1O[C@H](CO)[C@@H](O)[C@H](O)[C@H]1O` [n-octyl-β-D-glucopyranoside (OBG), n-octyl-β-D-glucopyranoside], for which the Relative lysis efficiency (single detergent at 0.02%) came out at 0.36 and the Relative lysis efficiency (single detergent at 0.1%) was 0.36.

For `CCCCCCCCS[C@@H]1O[C@H](CO)[C@@H](O)[C@H](O)[C@H]1O` [n-octyl-β-D-thioglucopyranoside (OTG), n-octyl-β-D-thioglucopyranoside], the Relative lysis efficiency was determined as 0.37 (single detergent at 0.02%) and 0.31 (single detergent at 0.1%).

(1-dodecyl) trimethylamonium bromide gave a Relative lysis efficiency (single detergent at 0.02%) of 0.88 and a Relative lysis efficiency (single detergent at 0.1%) of 0.25.

For the molecule NP40, the Relative lysis efficiency turned out to be 1.00 (single detergent at 0.1%), 1.01 (single detergent at 0.2%), 0.98 (single detergent at 0.4%) and 1.18 (single detergent at 0.6%).

In the case of Tergitol NP40, the Relative lysis efficiency (single detergent at 0.1%) amounted to 0.63.

As to Triton X-100, the Relative lysis efficiency (single detergent at 0.1%) is 0.78.

For the molecule Tween 20, the Relative lysis efficiency (single detergent at 0.1%) is 0.98 and 0.99; the Relative lysis efficiency (single detergent at 0.2%) came to 0.99; the Relative lysis efficiency (single detergent at 0.3%) turned out to be 0.99; the Relative lysis efficiency (single detergent at 0.4%) is given as 0.99; the Relative lysis efficiency (single detergent at 0.6%) stood at 1.02.

As to Tween 60, the Relative lysis efficiency (single detergent at 0.1%) turned out to be 0.65.

Consider Tween 80, for which the Relative lysis efficiency by setting is: (single detergent at 0.1%) 0.50 and 0.73; (single detergent at 0.2%) 0.69; (single detergent at 0.3%) 0.72; (single detergent at 0.4%) 0.71; (single detergent at 0.6%) 0.70.
